The values below come from US20170298056A1, “SMALL MOLECULE INHIBITORS OF HIV-1 ENTRY AND METHODS OF USE THEREOF” (Dana-Farber Cancer Institute, Inc., priority 2014, published 2017).

Usually IC50 stands for the concentration that gives 50% inhibition. Higher therefore signals lower potency.

For one assay, the system named is HIV-1JR-FL. As to the kind of experiment: Infection of human PBMC by HIV-1JR-FL. The assay is classed as cell-based. Particulars: HIV-1JR-FL infection of human PBMC. On the procedure: Peripheral blood mononuclear cells (PBMC). Human blood was purchased from Research Blood Components, who obtained a consent firm from each donor, according to the American Association of Blood Banks guidelines, PBMC were isolated from the whole blood using a Ficoll-Paque gradient (Ficoll-Paque PLUS, Amersham Biosciences) and activated at concentration of 10^6 live cells/ml for 3 days in RPMI-PBMC medium (RPMI-1640 supplemented with 20% FBS, 10% IL-2 (Hemagen, Columbia, Md.), 100 μg/ml primocin (InvivoGen, San Diego, Calif.)) with 4 μg/ml phytohemagglutinin (Sigma-Aldrich, St. Louis, Mo.). In some cases, cells were frozen, thawed and activated prior to the assay.
Viral infection assay. Each test compound was serially diluted in DMSO in a 96-well B&W isoplate (PerkinElmer, Boston, Mass.) using an HP D300 Digital Dispenser, to a final volume of 450 nl. DMSO was used as a control. […] The activity of the firefly luciferase, which was used as a reporter protein in the system, was measured with a Centro LB 960 luminometer (Berthold Technologies, Oak Ridge, Tenn.). One hundred microliters of assay buffer (15 mM MgSO4, 15 mM KH2PO4/K2HPO4 pH 7.8, 1 mM ATP and 1 mM DTT) was injected to each well, followed by a 50 μl injection of 1 mM Dluciferin potassium salt (BD Pharmingen, San Jose, Calif.); luminescence was measured for 2 sec. […]

Assay [1] relates to cell-cell fusion mediated by HIV-1JR-FL and HIV-1ADS Envs. The experiment in a line: Cell-cell fusion assay. The assay is classed as cell-based. On the procedure: H-JRFL#1336 (effector) and H-Fluc4 (control) cells were grown in DMEM containing 10% FBS, 100 μg/ml streptomycin, 100 units/ml penicillin, 200 μg/ml G418, 1 μg/ml puromycin and 2 μg/ml doxycycline. H-JRFL#13 cells carry an HIV-1JR-FL env gene that is induced by growing the cells in the absence of doxycycline (Tet-Off expression system). H-Fluc4 cells, which carry a firefly luciferase gene that is induced in the absence of doxycycline, were used as specificity controls. Both cell lines were derived from HeLa cells and constitutively express the tetracycline-regulated transactivator (Tet-Off expression system). […]
H-JRFL#13 or H-FLuc4 cells were washed thrice, detached with StemPro Accutase, centrifuged at 200×g for 6 minutes at 10° C. and seeded in DMEM containing 10% tetracycline-approved FBS, 100 μg/ml streptomycin, 100 units/ml penicillin, 100 μg/ml G418, 1 μg/ml puromycin and without Phenol Red. […] Firefly luciferase activity was measured using an EnVision Multilabel Plate Reader (PerkinElmer, Boston, Mass.). […]
To identify new molecules that potentially affect HIV-1 entry, a cell-cell fusion assay that mimics the entry of HIV-1 into cells was established (FIG. 1a). The assay uses a firefly luciferase (F-luc) readout to measure the fusion of HeLa effector cells that express the Envs from a primary HIV-1 strain and target cells coexpressing the CD4 and CCR5 receptors. […]

`O=C(N/N=C/c1ccc(O)cc1)Nc1cccc2nsnc12` [Compound 18A] came in with an IC50 in the assay with HIV-1JR-FL of 0.4 µM. Moreover, the cell-cell fusion result in assay [1] is “specifically inhibited cell-cell fusion”.
